Consider 30 molecules from paper PMC12040169 (PLOS Biology, 2025).

In brackets after ≈: the same amount, converted by molar mass.

Series [1] is described as follows: in vitro. To be noted: human, hela cells, % viability.
Series [2] concerns HeLa. To be noted: bulk resorufin, single well, 28.5 h, 10 µM, Bulk resorufin fluorescence.
For series [3], the system named is T1, CTL2-GFP (C. trachomatis L2/434/Bu, GFP-expressing).
T1 construct: L2/434/Bu, GFP-expressing
As to the kind of experiment: microbe, parasite or virus in culture. Details: species or system HeLa; C. trachomatis growth in HeLa, dose-response, mean of bulk GFP fluorescence and imaged total inclusion area. To be noted: Chlamydia trachomatis, 28.5 h; mean of GFP and inclusion area. An excerpt: (§1) We screened a library of 36,785 small molecules displaying drug-like properties and covering a wide chemical space (Fig 1A and S2A Data). In this process, we also complemented the assay described above with an imaging-based readout (Fig 1B). After measurements of bulk GFP and resorufin fluorescence, cells were fixed, stained with the DNA dye Hoechst, and imaged at a high-content imaging platform to detect chlamydial inclusions (GFP) and host cell nuclei (Hoechst). The total area and number of inclusions in individual wells and the number of nuclei then served as additional proxies for chlamydial growth and host cell viability. […] MICs were calculated as described above.

Series [4] has the same test system. In words: microbe, parasite or virus in culture. Details: C. trachomatis growth in HeLa, dose-response, mean of bulk GFP fluorescence and imaged total inclusion area. To be noted: Chlamydia trachomatis, HeLa, 28.5 h; mean of GFP and inclusion area.
Description: as §1

Series [5] can be described thus: in vitro. Details: Viability of infected HeLa host cells, resazurin conversion, bulk resorufin fluorescence relative to DMSO. Particulars: human, hela cells; bulk resorufin, mean of 3.

On to `C[C@H]1CN2CCCC2CN1Cc1ccccc1F` (stereo partly shown) [CBK285450], for which, in series [1], the viability (as a rule, a read-out of living cells in per cent, often relative to untreated cells) at 28.5 h, 10 µM was determined as 96.5%. Further, the % viability in series [2] turned out to be 103%.
Turning to `C[C@H]1CN2CCCC2CN1Cc1c(F)cccc1F` (stereo partly shown) [CBK285451], the viability at 28.5 h, 10 µM in series [1] turned out to be 89.8%. The % viability in series [2] was 102%.
The matching figures for `C[C@@H]1CN2CCCC2CN1Cc1ccc(F)cc1F` (stereo partly shown) [CBK285455]: 106% and 97.8%.
Take `CSCC[C@@H]1CN2CCC[C@H]2CN1Cc1cn(C)nc1C` [CBK285462]: the viability at 28.5 h, 10 µM in series [1] came to 95.5%. Also, in series [2], the % viability worked out at 107%.
Turning to `CC(C)C(=O)N1CCC[C@H]1Cn1nc(-c2cccs2)ccc1=O` [CBK285469], the viability at 28.5 h, 10 µM in series [1] amounted to 97.8%. In addition, in series [2], the % viability stood at 96.1%.
For the molecule `O=C(NCCc1ccccc1)[C@H]1C=CCN1C(=O)c1ccccc1F` [CBK285471], the viability at 28.5 h, 10 µM in series [1] is 94%. Also, the % viability in series [2] was 104%.
The matching figures for `C[C@H](Cn1c(=O)oc2ccccc21)NC(=O)CC1c2ccccc2Oc2ccccc21` [CBK286201]: 90.1% and 96.8%.
For the molecule `O=C(CN1C(=O)[C@@H]2CCCN2C(=O)c2ccccc21)NCc1ccccc1` [CBK286318], the viability at 28.5 h, 10 µM in series [1] worked out at 98.6%. Further, in series [2], the % viability turned out to be 89.5%.
The matching figures for `O=C(CN1C(=O)[C@H]2CCCN2C(=O)c2ccccc21)Nc1ccccc1-c1ccccc1` [CBK286321]: 93.9% and 94.1%.
On to `O=C(CN1C(=O)[C@@H]2CCCN2C(=O)c2ccccc21)NCCc1ccccc1` [CBK286402], for which the viability at 28.5 h, 10 µM in series [1] was determined as 87.1%. The % viability in series [2] worked out at 90%.
Regarding `CC(C)(CC(=O)O)CC(=O)Nc1cccc(CCc2ccncc2)c1` [CBK286989], the viability at 28.5 h, 10 µM in series [1] amounted to 99.3%. Further, the % viability in series [2] was found to be 84.8%.
`CCCCn1nc(C)c(-c2cc(C(=O)O)[nH]n2)c1C` [CBK287047]: the viability at 28.5 h, 10 µM in series [1] turned out to be 95%. Besides, the % viability in series [2] stood at 84.5%.
`O=C(O)CCCCCN1C(=O)CC(c2ccc(Cl)cc2)CC1=O` [CBK287245]: in series [1], the viability at 28.5 h, 10 µM turned out to be 104%. Besides, the % viability in series [2] was 102%.
Take `CC1Cc2ccccc2N1c1ncnc2nc[nH]c12` (stereo not shown) [CBK287388]: the viability at 28.5 h, 10 µM in series [1] was found to be 66.8%. For the same molecule, the % viability in series [2] came to 66.9%.
The matching figures for `O=c1[nH]nc2ccc(S(=O)(=O)N3CCCC3)cn12` [CBK288033]: 80.5% and 91.1%.
The matching figures for `O=C(c1cnc2[nH][nH]c(=O)c2c1)c1ccccc1O` [CBK288082]: 90.5% and 110%.
For `Nc1nc(=O)c2cnc3ccc(Cl)cc3c2s1` [CBK288175], in that order: 84.6% and 79.6%.
On to `CNC(=S)N1CCN(c2nsc3ccccc23)CC1` [CBK288515], for which the viability at 28.5 h, 10 µM in series [1] came out at 83.5%. For the same molecule, in series [2], the % viability was 83.2%.
Regarding `COc1cc2[nH]c(=S)n(C3CCCC3)c(=O)c2cc1OC` [CBK288518], in series [1], the viability at 28.5 h, 10 µM turned out to be 84.9%. In series [2], the % viability was found to be 93.5%.
Take `CC(=O)Nc1ccc(S(N)(=O)=O)c2ccccc12` [CBK288522]: the viability at 28.5 h, 10 µM in series [1] was 83.5%. Further, the % viability in series [2] was found to be 94%.
As for `O=C(NCCCN1CCCCC1)/C(=N\O)c1ccccc1` [CBK288524], the viability at 28.5 h, 10 µM in series [1] was 97.7%. In addition, the % viability in series [2] amounted to 85.9%.
The matching figures for `CCCNC(=O)NS(=O)(=O)c1ccc(C)cc1` [CBK288527]: 100% and 90.2%.
For `COC(=O)[C@@H]1Cc2c([nH]c3ccccc23)[C@H]2C[C@H](NCCO)C[C@@H](c3ccccc3)N21` [CBK289167], in that order: 94.8% and 97.8%.
The matching figures for `Cn1nnc2cc(NC(=O)N3CC4(C)CC3CC(C)(C)C4)ccc21` (stereo not shown) [CBK304389]: 94.6% and 95.3%.
`CCOc1ccc(-c2ccnc(NC[C@@H]3CCCO3)n2)cc1C(=O)O` [CBK306568]: the viability at 28.5 h, 10 µM in series [1] came out at 86.5%. Also, the % viability in series [2] amounted to 89.2%.
As for `CC[C@H](CO)NC(=O)c1coc(COc2ccc3sc(C)nc3c2)n1` [CBK306602], the viability at 28.5 h, 10 µM in series [1] was found to be 85.3%. In series [2], the % viability came to 93.5%.
As to `CCCCc1ccc(Nc2csc(N)n2)cc1` [c11e], in series [3], the MIC amounted to 3.11 µM (≈ 0.768 µg/mL). The IC50 (as a rule, the concentration that inhibits the measured activity by half) in series [4] came to 0.956 µM. Moreover, in series [5], the viability at 28.5 h, 0.000416667 µM came out at 97.7%; the viability at 28.5 h, 0.00125 µM came out at 95.9%; the viability at 28.5 h, 0.00375 µM is 96.4%; the viability at 28.5 h, 0.0123333 µM was 104%. In series [5], the viability at 28.5 h, 0.037 µM was found to be 92.8%; the viability at 28.5 h, 0.111 µM came out at 97.8%; the viability at 28.5 h, 0.333 µM was 99.6%; the viability at 28.5 h, 1 µM is 102%. Further, in series [5], the viability at 28.5 h, 3 µM is 92.4%; the viability at 28.5 h, 10 µM turned out to be 92.8%; the viability at 28.5 h, 30 µM worked out at 69.9%.
For `CN(C(=O)c1ccc(Cl)c(Cl)c1)[C@H]1CCC[C@H]1N1CCCC1` [c12e], the MIC in series [3] was found to be 1.7 µM (≈ 0.581 µg/mL). In series [4], this molecule yielded an IC50 of 1.02 µM. Moreover, in series [5], the viability at 28.5 h, 0.000416667 µM was found to be 93%; the viability at 28.5 h, 0.00125 µM stood at 89.3%; the viability at 28.5 h, 0.00375 µM came to 91.4%; the viability at 28.5 h, 0.0123333 µM is 89%. In addition, in series [5], the viability at 28.5 h, 0.037 µM was found to be 88.9%; the viability at 28.5 h, 0.111 µM stood at 92.8%; the viability at 28.5 h, 0.333 µM was determined as 88.7%; the viability at 28.5 h, 1 µM was determined as 89%. In series [5], the viability at 28.5 h, 3 µM came out at 85.2%; the viability at 28.5 h, 10 µM is 92.7%; the viability at 28.5 h, 30 µM is 82.8%.
As for `O=C(CC1SC(Nc2ccc(O)cc2)=NC1=O)c1ccccc1` (stereo not shown) [c13e], the MIC in series [3] came out at 4.56 µM (≈ 1.49 µg/mL). In series [4], half-maximal inhibition (IC50) was put at 1.03 µM. Besides, in series [5], the viability at 28.5 h, 0.000416667 µM stood at 95%; the viability at 28.5 h, 0.00125 µM came out at 92.7%; the viability at 28.5 h, 0.00375 µM amounted to 87.7%; the viability at 28.5 h, 0.0123333 µM was 95%. For the same molecule, in series [5], the viability at 28.5 h, 0.037 µM amounted to 87.6%; the viability at 28.5 h, 0.111 µM came to 92%; the viability at 28.5 h, 0.333 µM turned out to be 86.2%; the viability at 28.5 h, 1 µM was found to be 88.7%. Also, in series [5], the viability at 28.5 h, 3 µM turned out to be 85.2%; the viability at 28.5 h, 10 µM came to 85.6%; the viability at 28.5 h, 30 µM stood at 83.8%.
Molecule `CCC(c1ccc(F)cc1)N(C)C(=O)Cn1cc(C(=O)NC2CCCCC2)ccc1=O` (stereo not shown) [c44e] registered an IC50 in series [4] of 5.83 µM. Besides, in series [5], the viability at 28.5 h, 0.000416667 µM is 93.4%; the viability at 28.5 h, 0.00125 µM is 91.8%; the viability at 28.5 h, 0.00375 µM is 93.8%; the viability at 28.5 h, 0.0123333 µM came out at 89.2%. In series [5], the viability at 28.5 h, 0.037 µM was 90.8%; the viability at 28.5 h, 0.111 µM amounted to 86.7%; the viability at 28.5 h, 0.333 µM came to 87.7%; the viability at 28.5 h, 1 µM stood at 85.4%. Also, in series [5], the viability at 28.5 h, 3 µM was found to be 87.9%; the viability at 28.5 h, 10 µM stood at 83.2%; the viability at 28.5 h, 30 µM is 87.2%.
